Data reported in US7482425B2, “Compositions for lipid matrix-assisted chemical ligation” (Amylin Pharmaceuticals, Inc., priority 2002, dated 2009).
Where no end group is shown, it is not given here.

Details: pH 7.5

Sequence: TGRPEWIWLALGTALMGLGTLYFLVKGMGVSDPDAKK [Peptide 1, TGRPEWIWLALGTALMGLGTLYFLVKGMGVSDPDAKK]
- solubility: does not dissolve
